Laboratory results taken from patent publication US11685766B2, “14-3-3 targeting peptides for cancer treatment” (Creighton University, priority 2019, dated 2023).
“Also recorded” adds a separate entry of the source. Peptide text beside a SMILES is read from it.

Legend:
[1] = system: SCC13 cells xenograft tumors; test: Mouse SCC tumor xenografts (TUNEL, immunofluorescence, tumor growth); type: in vivo; settings: for tumor volume compared to vehicle-treated xenografts: mouse xenograft tumors; for P-Akt (S473) levels in SCC xenografts (immunofluorescence) / Survivin levels in SCC xenografts (immunofluorescence): vs vehicle-treated xenografts; for increase in number of TUNEL-positive SCC cells compared to vehicle: intratumoral 2.5 nmol/50 μL, NCG mice, SCC13
Protocol: Immunofluorescence was performed using an alexa-fluor488-conjugated secondary antibody (IgG mouse or rabbit) (Invitrogen) with 4′,6-diamidino-2-phenylindole (DAPI) (Vector Labs, Burlingame, Calif., USA) to identify nuclei. Cellular localization of immunohistochemistry signal was determined in a double-blinded manner. Slides were digitalized and fluorescence intensity was measured using Image analysis was performed using the Olympus VS120 Slide Scanner and Olyvia Analysis Software, respectively (Olympus, Tokyo, Japan).
Groups of NCG mice (NOD CRISPR Prkdc Il2r gamma/NjuCrl) (Charles River, Malvern, Pa., USA) were injected s.c. with 5×10^5 SCC13 cells suspended in 1:1 mixture of 1×PBS:Matrigel (Corning, Corning, N.Y., USA). Once the tumors reached a volume of 150 mm^3, tumors were treated with either vehicle (50 μL 1×PBS) or 2.5 nmol/50 μL of the targeting peptide ES1P2. Tumors were injected directly with either vehicle or ES1P2 daily for 2 days or every other day for 2 weeks and then harvested for analysis 24 hours after the last treatment. Tumors were fixed overnight in 10% buffered formalin (Thermo Fisher) and then switched to 70% ethanol the following day. All procedures were performed in accordance with the guidance of Creighton University Institutional Animal Care and Use Committee.
TUNEL (Terminal deoxynucleotidyl transferase dUTP nick end labeling) was carried out using Promega DeadEnd Fluorometric TUNEL system in accordance with the manufacturer's instructions (Promega). Cells were treated with DAPI (Vector Labs) to locate the nuclei within cells. […] Slides were digitalized and apoptotic nuclei counted using an Olympus VS120 Slide Scanner (Olympus).
Immunostaining was performed using antibodies recognizing P-Akt (S473) (Thermo Fisher) and Survivin (Cell Signaling, Danvers, Mass., USA), with alexa-fluor488-conjugated secondary antibody (IgG rabbit) (Invitrogen) with 4′,6-diamidino-2-phenylindole (DAPI) (Vector Labs, Burlingame, Calif., USA) to identify the nuclei. Slides were digitalized and analyzed using an Olympus VS120 Slide Scanner (Olympus, Shinjuku, Tokyo, JPN).
Groups of NCG mice (NOD CRISPR Prkdc Il2r gamma/NjuCrl) (Charles River, Malvern, Pa., USA) were injected s.c. with 5×10^5 human SCC13 cells suspended in 1:1 mixture of 1×PBS:Matrigel (Corning, Corning, N.Y., USA). Once the tumors reached 150 mm^3 in volume they were treated intratumorally with either vehicle (1× sterile PBS, pH, 7.5), pS, or pT (2.5 nmol/50 μL for each) daily for 2 days and then the mice were euthanized 24 hours after the second treatment. Tumors were fixed overnight in 10% neutral buffered formalin (Thermo Fisher) and then switched to 70% ethanol the following day before embedding and sectioning. All procedures were performed in accordance with the guidance of the Creighton University Institutional Animal Care and Use Committee.
TUNEL (terminal uridine nick-end labelling) assays were carried out using the Promega DeadEnd Fluorometric TUNEL system in accordance with the manufacturer's instructions (Promega Corporation, Madison, Wis., USA). Cells were treated with 4′,6-diamidino-2-phenylindole (DAPI) to locate the nuclei within cells. Slides were scanned and analyzed using an Olympus VS120 Slide Scanner (Olympus).

14-3-3ε protein = target: T1, 14-3-3ε protein (Homo sapiens, UniProt P62258); test: Differential scanning fluorimetry (DSF) binding; settings: 7 μM 14-3-3ε, ΔTm vs peptide concentration, Hill fit; read-out: Kd, binding affinity to 14-3-3ε protein (DSF)
T1 sequence (P62258 1-255): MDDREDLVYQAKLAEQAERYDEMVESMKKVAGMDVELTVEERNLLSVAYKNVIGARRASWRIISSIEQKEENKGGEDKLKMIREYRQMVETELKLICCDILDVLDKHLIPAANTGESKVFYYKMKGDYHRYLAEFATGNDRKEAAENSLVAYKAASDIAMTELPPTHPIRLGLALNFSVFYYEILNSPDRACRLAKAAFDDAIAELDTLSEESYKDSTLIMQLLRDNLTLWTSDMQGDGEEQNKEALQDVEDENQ
Protocol: Differential scanning fluorimetry (DSF) experiments were performed using BioRad CFX384 Real-Time qPCR attached with C1000 Touch Thermo Cycler in the FRET channel. 7 μM subunits of 14-3-3ε protein, ten molar excess of Sypro Orange and 20 mM Tris-HCl, pH 7.4 assay buffer were used in all the melting experiments. Stock solution of peptides were prepared by dissolving 1 mg of lyophilized peptides in 20 mM Tris, pH 7.4 buffer and 0.1 μM to 200 μM dilution series were prepared. Protein melting experiments were performed both in the absence and the presence of increasing concentration of peptides. 15 μL of each samples (in triplicate) were put into each well of a 384-well white PCR plate and sealed with optical adhesive sealer (BioRad MSB-1001) and any air-bubble in the solutions were removed by spinning the plate vertically with PCR plate spinner (Labnet MPS 1000) at 1000 RPM for 3 minutes. The temperature was increased from 25° C. to 95° C. at a rate of 0.7° C. per minute. Melting temperatures of each well were determined using the CFX Maestro software version 2.0 by plotting the first derivative of fluorescence signal against temperature. All the measurements were performed in triplicate and the deviations of melting temperatures (ΔTm) presented for each samples were calculated relatively to three control samples (7 μM 14-3-3ε in the absence of the peptide). Binding constant (Kd) for each peptide was calculated by plotting ΔTm against peptide concentration and data points were fitted with Hill's equation using GraphPad 9.0 software.

SMILES: NCCCC[C@H](NC(=O)[C@H](Cc1c[nH]c2ccccc12)NC(=O)[C@H](Cc1ccc(O)cc1)NC(=O)[C@@H](N)Cc1c[nH]c2ccccc12)C(N)=O [ES1P2, Trp-Tyr-Trp-Lys-NH2] (H-WYWK-NH2)
- number of TUNEL-positive SCC cells compared to vehicle ([1]; intratumoral 2.5 nmol, 2 daily treatments): more than doubled
- tumor volume compared to vehicle-treated xenografts [1]: decreased tumor growth; also recorded: reduced tumor volume
- reduction of SCC growth compared to vehicle ([1]; repeated intratumoral treatments of SCC xenografts, FIG. 1H/1I): approximately one-third
- P-Akt (S473) levels in SCC xenografts (immunofluorescence) [1]: decreased
- Survivin levels in SCC xenografts (immunofluorescence) [1]: decreased

SMILES: CSCC[C@H](NC(=O)[C@H](CCCNC(=N)N)NC(=O)[C@@H]1CCCN1C(=O)[C@H](C)NC(=O)[C@H](COP(=O)(O)O)NC(=O)[C@H](CC(N)=O)NC(=O)[C@H](CCC(N)=O)NC(=O)[C@H](CCCNC(=N)N)NC(=O)[C@H](CCC(N)=O)NC(=O)[C@@H](NC(C)=O)[C@@H](C)O)C(=O)N[C@@H](CC(C)C)C(=O)N[C@@H](CO)C(=O)N[C@@H](CO)C(=O)N[C@@H](CC(N)=O)C(N)=O [pS, Ac-Thr-Gln-Arg-Gln-Asn-Ser-(PO3^2−)-Ala-Pro-Arg-Met-Leu-Ser-Ser-Asn-NH2] (HELM PEPTIDE1{[ac].T.Q.R.Q.N.[O=C([C@H](COP(=O)(O)O)N[*:1])[*:2]].A.P.R.M.L.S.S.N.[am]}$$$$V2.0)
- increase in number of TUNEL-positive SCC cells compared to vehicle ([1]; 2 daily treatments): 25%
- tumor volume compared to vehicle-treated xenografts [1]: decreased volume
- P-Akt (S473) levels in SCC xenografts (immunofluorescence) [1]: decreased
- Survivin levels in SCC xenografts (immunofluorescence) [1]: decreased
- Kd (14-3-3ε protein): 11.2 µM

SMILES: CC(=O)N[C@@H](CCCNC(=N)N)C(=O)N[C@H](C(=O)N[C@@H](CCCCN)C(=O)N[C@@H](CO)C(=O)N[C@@H](CCCNC(=N)N)C(=O)N[C@H](C(=O)N[C@@H](Cc1c[nH]c2ccccc12)C(=O)N[C@@H](C)C(=O)NCC(=O)N[C@@H](CCC(=O)O)C(=O)N[C@@H](CCCCN)C(=O)N[C@@H](CO)C(=O)N[C@@H](CCCCN)C(=O)N[C@@H](CCCNC(=N)N)C(N)=O)[C@@H](C)OP(=O)(O)O)[C@@H](C)O [pT, Ac-Arg-Thr-Lys-Ser-Arg-Thr(PO3^2−)-Trp-Ala-Gly-Glu-Lys-Ser-Lys-Arg-NH2] (HELM PEPTIDE1{[ac].R.T.K.S.R.[C[C@@H](OP(=O)(O)O)[C@H](N[*:1])C(=O)[*:2]].W.A.G.E.K.S.K.R.[am]}$$$$V2.0)
- increase in number of TUNEL-positive SCC cells compared to vehicle ([1]; 2 daily treatments): 51%
- tumor volume compared to vehicle-treated xenografts [1]: decreased volume
- P-Akt (S473) levels in SCC xenografts (immunofluorescence) [1]: decreased
- Survivin levels in SCC xenografts (immunofluorescence) [1]: decreased
- Kd (14-3-3ε protein): 3.64 µM
